Earlier results as cited in article PMC4515243, “Phase 1 pharmacokinetic study of the oral pan-AKT inhibitor MK-2206 in Japanese patients with advanced solid tumors” (Cancer Chemotherapy and Pharmacology, 2015).

Biological target: AKT1 kinase activity
Parameters: method as in ref 4 = [4]; 4. Lu W, Defeo-Jones D, Davis L et al (2009) In vitro and in vivo antitumor activities of MK-2206, a new allosteric Akt inhibitor [abstract #3714]. In: Proceedings of the 100th annual meeting of the A
Details: several cancer cell lines; cited from earlier work

Question: Which IC50 does the source give for NC1(c2ccc(-c3nc4ccn5c(=O)[nH]nc5c4cc3-c3ccccc3)cc2)CCC1 [MK-2206] here?
Answer: ~20 nM
